Test: xn = mol fraction of the nth substance listed
Details: 101 kPa, Liquid; for speed of sound: Sing-around technique in a fixed-path interferometer; for mass density: Vibrating tube method

CCCC[n+]1cccc(C)c1.F[B-](F)(F)F [1-butyl-3-methylpyridinium tetrafluoroborate] + CCO
Details	mass density, 293.15 K [kg/m3]	mass density, 303.15 K [kg/m3]	mass density, 313.15 K [kg/m3]	mass density, 323.15 K [kg/m3]	speed of sound, 293.15 K [m/s]	speed of sound, 303.15 K [m/s]	speed of sound, 313.15 K [m/s]	speed of sound, 323.15 K [m/s]
x1 = 0.0572	861.245	852.837	844.506	835.724	1206	1177	1146.5	1116.4
x1 = 0.0964	900.833	892.417	884.287	875.61	1239.4	1212.4	1183.6	1155.2
x1 = 0.1466	942.807	934.902	926.796	918.466	1281	1254.5	1228.4	1202
x1 = 0.1964	977.495	969.562	961.571	953.451	1320	1294.8	1269.1	1244.2
x1 = 0.2431	1004.66	996.702	988.807	980.836	1355.1	1330	1304.6	1279.3
x1 = 0.2998	1032.24	1024.76	1016.86	1009.22	1390.6	1365.5	1340.4	1315.4
x1 = 0.3966	1069.96	1062.42	1055	1047.46	1442.7	1417.4	1392.4	1366.2
x1 = 0.4984	1100.02	1092.8	1085.55	1078.03	1484.2	1459.2	1434.3	1409.9
x1 = 0.5931	1122.42	1115.36	1108.06	1100.95	1515.9	1491	1466.4	1442.2
x1 = 0.691	1141.63	–	1127.5	1120.36	1543.7	–	1494.9	1471.2
x1 = 0.8022	1159.85	–	1145.95	1138.97	1566.2	–	1517.2	1493.8
x1 = 0.8923	1172.56	–	1158.84	1151.94	1582.6	–	1534.7	1511.3
x1 = 0.9517	1180.05	–	1166.44	1159.62	1591.7	–	1543.7	1519.5

CCCC[n+]1cccc(C)c1.F[B-](F)(F)F [1-butyl-3-methylpyridinium tetrafluoroborate] + CO
Details	mass density, 293.15 K [kg/m3]	mass density, 303.15 K [kg/m3]	mass density, 313.15 K [kg/m3]	mass density, 323.15 K [kg/m3]	speed of sound, 293.15 K [m/s]	speed of sound, 303.15 K [m/s]	speed of sound, 313.15 K [m/s]	speed of sound, 323.15 K [m/s]
x1 = 0.0481	876.902	868.149	858.994	850.146	1203.1	1173.4	1143.9	1114.7
x1 = 0.1001	940.659	932.121	923.594	915.022	1271	1243.3	1215.7	1188.3
x1 = 0.1548	988.767	980.512	972.213	964.125	1330.9	1304.2	1277.6	1251.7
x1 = 0.2003	1019.3	1011.19	1003.35	995.225	1370	1344	1318.1	1292.4
x1 = 0.2487	1045.53	1037.61	1029.56	1021.63	1407.2	1381.6	1356	1330.8
x1 = 0.297	1066.65	1058.61	1050.84	1042.82	1433.6	1408.1	1382.9	1358
x1 = 0.4013	1101.04	1093.31	1085.48	1077.9	1482.7	1457.9	1433	1415
x1 = 0.4969	1123.82	1116.42	1108.81	1101.29	1514.2	1489.3	1464.9	1443.1
x1 = 0.5974	1142.04	1134.73	1127.47	1120.24	1538.7	1514.1	1489.9	1466.2
x1 = 0.6972	1156.18	1149.17	1142.08	1135	1557.9	1533.5	1509.5	1485.8
x1 = 0.8437	1172.39	1165.51	1158.69	1151.77	1580.4	1556.2	1532.6	1509.2
x1 = 0.8984	1177.43	1170.57	1163.79	1156.96	1587.2	1562.8	1539.3	1516
x1 = 0.9692	1183.29	1176.48	1169.74	1162.98	1595.6	1571.3	1547.5	1524.5
